Patent US20050043315A1, “Aminopyrimidine compounds, processes for their preparation and pharmaceutical compositions containing them” (priority 2002, published 2005)

What was measured:
[1] = molecular target: T1, human A1 receptor (Homo sapiens, UniProt P30542); assay: Adenosine antagonistic activity, radioligand binding with [3H]DPCPX; conditions: [3H]DPCPX 4.5 nM
T1 sequence (P30542 1-326): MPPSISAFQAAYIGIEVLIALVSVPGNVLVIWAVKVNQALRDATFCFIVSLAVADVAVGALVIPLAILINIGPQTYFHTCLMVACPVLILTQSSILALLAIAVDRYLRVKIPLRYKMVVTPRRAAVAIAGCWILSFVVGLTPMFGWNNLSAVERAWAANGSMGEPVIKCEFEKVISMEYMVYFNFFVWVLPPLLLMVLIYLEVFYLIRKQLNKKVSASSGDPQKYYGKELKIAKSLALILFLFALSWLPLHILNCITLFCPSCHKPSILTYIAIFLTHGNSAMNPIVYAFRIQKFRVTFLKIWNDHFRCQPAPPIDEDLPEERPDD
Protocol: (§1) The adenosine antagonistic activity [Ki(nM)] of the test compound was examined by radioligand binding techniques using 8-cyclopentyl-1,3-dipropylxanthine, [dipropyl-2,3-^3H(N)] ([^3H]DPCPX, 4.5 nM) for human A1 receptor and [^3H]CGS 21680 (20 nM) for human A2a receptor.

[2] = tested on: ddY mice; assay: Anticatalepsy activity in mouse (haloperidol-induced catalepsy); type: in vivo; conditions: 3.2 mg/kg orally, ddY mice n=7; haloperidol 0.32 mg/kg i.p. 30 min after compound; measured 30 min after injection
Protocol: The test compound (3.2 mg/kg) was administered orally with ddY mice(n=7). Then, haloperidol (0.32 mg/kg) was injected intraperitoneally 30 min. after the administration of the compound. Thirty min. after the injection, the cataleptic responses of mice were measured. The forelimbs of each mouse were placed on a 3 cm high, 3 mm wide horizontal bar, and the duration of cataleptic posture was measured for up to 30 sec.

[3] = molecular target: human A2a receptor (Homo sapiens, UniProt P29274); assay: Adenosine antagonistic activity, radioligand binding with [3H]CGS 21680; conditions: [3H]CGS 21680 20 nM
Sequence of human A2a receptor (P29274 whole entry): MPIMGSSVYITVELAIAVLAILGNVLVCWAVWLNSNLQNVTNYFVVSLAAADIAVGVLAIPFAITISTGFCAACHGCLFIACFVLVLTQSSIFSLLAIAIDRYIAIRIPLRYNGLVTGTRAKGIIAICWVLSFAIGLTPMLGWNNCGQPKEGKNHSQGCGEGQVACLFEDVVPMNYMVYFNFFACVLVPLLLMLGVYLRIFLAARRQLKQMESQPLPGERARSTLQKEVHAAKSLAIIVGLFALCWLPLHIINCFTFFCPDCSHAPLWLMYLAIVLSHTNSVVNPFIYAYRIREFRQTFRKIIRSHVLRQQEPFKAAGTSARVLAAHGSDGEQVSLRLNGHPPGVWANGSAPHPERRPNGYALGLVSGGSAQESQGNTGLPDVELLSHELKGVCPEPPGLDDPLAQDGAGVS
Protocol: as §1

Row | Structure (SMILES) | Ki [1] | melting point | Ki [3] | Manifestation rate of catalepsy (number of mouse) [2]
1 | Nc1ncc(-c2ccc(=O)[nH]n2)c(-c2ccccc2)n1 [Example 1, 6-(2-Amino-4-phenyl-5-pyrimidinyl)-3(2H)-pyridazinone] | 11.3 nM | > 280 °C | 3.85 nM | 4/7
2 | CC(=O)Nc1ncc(-c2ccc(=O)n(C(C)C)n2)c(-c2ccccc2)n1 [Example 7, N-[5-(1-Isopropyl-6-oxo-1,6-dihydro-3-pyridazinyl)-4-phenyl-2-pyrimidinyl]acetamide] | 6.47 nM | 209 to 210 °C | 2.09 nM | 0/7
3 | CC(C)n1nc(-c2cnc(N)nc2-c2ccco2)ccc1=O [Example 47, 6-[2-Amino-4-(2-furyl)-5-pyrimidinyl]-2-isopropyl-3(2H)-pyridazinone] | 7.74 nM | 215 °C | 1.38 nM | 1/7

Further compounds by falling Ki [1], results first:

Row | Ki [1] | melting point | Ki [3] | Structure (SMILES) | Manifestation rate of catalepsy (number of mouse) [2]
4 | 10.8 nM | 143 to 144.5 °C | 7.38 nM | CC(C)n1nc(-c2cnc(NCc3ccccn3)nc2-c2ccccc2)ccc1=O [Example 18, 2-Isopropyl-6-{4-phenyl-2-[(2-pyridinylmethyl)amino]-5-pyrimidinyl}-3(2H)-pyridazinone] | 0/7
5 | 3.14 nM | 255 to 256 °C | 4.35 nM | CCn1nc(-c2cnc(N)nc2-c2ccccc2)ccc1=O [Example 4, 6-(2-Amino-4-phenyl-5-pyrimidinyl)-2-ethyl-3(2H)-pyridazinone] | 0/7
6 | 2.36 nM | 147 °C | 1.7 nM | COCCOc1ccc(-c2nc(N)ncc2-c2ccc(=O)n(C(C)C)n2)cc1 [Example 212, 6-{2-Amino-4-[4-(2-methoxyethoxy)phenyl]-5-pyrimidinyl}-2-isopropyl-3(2H)-pyridazinone] | 0/7
7 | 1.75 nM | 231 to 232.5 °C | 1.41 nM | CC(C)n1nc(-c2c(F)nc(N)nc2-c2ccccc2)ccc1=O [Example 136, 6-(2-Amino-4-fluoro-6-phenyl-5-pyrimidinyl)-2-isopropyl-3(2H)-pyridazinone] | 0/7
